The test system of the experiment is node-positive breast cancers. Put plainly: GEICAM/9906 randomized phase III adjuvant trial, FEC versus FEC-P: overall and disease-free survival, by PAM50 proliferation score. Particulars: FEC-P vs. FEC; lowest quartile of 11-gene proliferation score. Type of experiment: in vivo, human. As to the method:
The primary endpoint of the […]/9906 clinical trial was disease-free survival. Secondary endpoints were: (a) overall survival; (b) prognostic and predictive value of molecular/genomic markers and (c) safety. The study was performed in accordance with the Declaration of Helsinki, approved by the ethics committees at all participating institutions and the Spanish Health Authority, and it was registered at www.clinicaltrials.gov (identifier code: NCT00129922). All patients provided written informed consent for therapy randomization and molecular analyses. […] Samples were gene expression profiled using the previously described RT-qPCR assay and analyzed using the clinical algorithm for subtype prediction (Parker et al., J Clin Oncol 27:1160-1167, 2009; Amp Laboratories: PAM50 Breast Cancer Intrinsic Classifier Information. at the World Wide Web (www) aruplab.com/Lab-Tests/General-Oncology/PAM50/index.jsp). […] In addition to the subtype classification, a PAM50proliferation score was calculated using the previously described 11-gene signature (BIRC5, CCNB1, CDC20, CDCA1, CEP55, KNTC2, MKI67, PTTG1, RRM2, TYMS, UBE2C) (Nielsen et al., Clin Cancer Res 16(21):5222-32, 2010). The significance of proliferation was evaluated using a classification into quartiles, and using the proliferation scores as a continuous variable. […]

We go through 1 molecule from patent publication US9181588B2, “Methods of treating breast cancer with taxane therapy” (The University of Utah Research Foundation, priority 2011, dated 2015).

As to `CC(=O)O[C@H]1C(=O)[C@@]2(C)[C@H]([C@H](OC(=O)c3ccccc3)[C@]3(O)C[C@H](OC(=O)[C@H](O)[C@@H](NC(=O)c4ccccc4)c4ccccc4)C(C)=C1C3(C)C)[C@]1(OC(C)=O)CO[C@@H]1C[C@@H]2O` [paclitaxel], the “HR for OS, low proliferation score” value is 0.232.
